Tests used:
[1] = target: T1, BCDX2 (RAD51B-RAD51C-RAD51D-XRCC2) (Homo sapiens, UniProt O15315+O43502+O43543+O75771); assay: cryo-EM structure ([…] Å and […] Å); format: binding; conditions: Mg2+, sample vitrified with ADP.AlFx or ADP.BeFx
T1 construct: four-subunit complex co-expressed in Sf9 cells; N-terminal TwinStrep-TEV tag on XRCC2 removed by TEV protease

[2] = target: T2, BCDX2 (RAD51B-RAD51C-RAD51D-XRCC2) (Homo sapiens, UniProt O15315+O43502+O43543+O75771, O15315:K114A, form not given); assay: HPLC of nucleotides extracted from purified complex; format: binding; conditions: RAD51B Walker A mutant; nucleotide co-purified with the complex; 2.5 mM Mg2+, pH 7.5
T2 construct: four-subunit complex co-expressed in Sf9 cells; N-terminal TwinStrep-TEV tag on XRCC2 removed by TEV protease

[3] = target: T1, BCDX2 (RAD51B-RAD51C-RAD51D-XRCC2); assay: as above; format: binding; conditions: nucleotide co-purified with the complex; 2.5 mM Mg2+, pH 7.5; sites: RAD51B and RAD51C
[4] = target: T3, BCDX2 (RAD51B-RAD51C-RAD51D-XRCC2) (Homo sapiens, UniProt O15315+O43502+O43543+O75771, O15315:E144A/O43502:E161A, form not given); assay: as above; format: binding; conditions: RAD51B and RAD51C catalytic glutamate double mutant; 2.5 mM Mg2+, pH 7.5
T3 construct: four-subunit complex co-expressed in Sf9 cells; N-terminal TwinStrep-TEV tag on XRCC2 removed by TEV protease

[5] = target: T2, BCDX2 (RAD51B-RAD51C-RAD51D-XRCC2); assay: as above; format: binding; conditions: RAD51B Walker A mutant; nucleotide co-purified with the complex; 2.5 mM Mg2+, pH 7.5; remark: listed apart in the source
[6] = target: T4, BCDX2 (RAD51B-RAD51C-RAD51D-XRCC2) (Homo sapiens, UniProt O15315+O43502+O43543+O75771, O15315:E144A, form not given); assay: ATPase assay, alpha-32P-ATP, TLC; format: biochemical; conditions: RAD51B catalytic glutamate mutant; 15 µM ATP, 1 µM complex, 2.5 mM Mg2+, pH 7.5, 37 °C
T4 construct: four-subunit complex co-expressed in Sf9 cells; N-terminal TwinStrep-TEV tag on XRCC2 removed by TEV protease

[7] = target: T5, BCDX2 (RAD51B-RAD51C-RAD51D-XRCC2) (Homo sapiens, UniProt O15315+O43502+O43543+O75771, O43502:E161A, form not given); assay: HPLC of nucleotides extracted from purified complex; format: binding; conditions: RAD51C catalytic glutamate mutant; 2.5 mM Mg2+, pH 7.5
T5 construct: four-subunit complex co-expressed in Sf9 cells; N-terminal TwinStrep-TEV tag on XRCC2 removed by TEV protease

[8] = target: T1, BCDX2 (RAD51B-RAD51C-RAD51D-XRCC2); assay: as above; format: binding; conditions: nucleotide co-purified with the complex; 2.5 mM Mg2+, pH 7.5

T1 sequence (O15315 1-345): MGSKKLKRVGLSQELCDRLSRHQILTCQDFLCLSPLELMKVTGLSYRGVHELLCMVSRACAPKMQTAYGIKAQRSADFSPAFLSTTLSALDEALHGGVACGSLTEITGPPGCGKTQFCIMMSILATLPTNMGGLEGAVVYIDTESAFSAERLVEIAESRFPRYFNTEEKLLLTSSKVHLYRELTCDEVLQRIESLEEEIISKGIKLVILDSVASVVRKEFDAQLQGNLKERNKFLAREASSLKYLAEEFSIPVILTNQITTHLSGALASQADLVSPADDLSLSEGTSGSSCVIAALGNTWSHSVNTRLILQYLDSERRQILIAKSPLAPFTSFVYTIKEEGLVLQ
T1 sequence (O43502 whole entry): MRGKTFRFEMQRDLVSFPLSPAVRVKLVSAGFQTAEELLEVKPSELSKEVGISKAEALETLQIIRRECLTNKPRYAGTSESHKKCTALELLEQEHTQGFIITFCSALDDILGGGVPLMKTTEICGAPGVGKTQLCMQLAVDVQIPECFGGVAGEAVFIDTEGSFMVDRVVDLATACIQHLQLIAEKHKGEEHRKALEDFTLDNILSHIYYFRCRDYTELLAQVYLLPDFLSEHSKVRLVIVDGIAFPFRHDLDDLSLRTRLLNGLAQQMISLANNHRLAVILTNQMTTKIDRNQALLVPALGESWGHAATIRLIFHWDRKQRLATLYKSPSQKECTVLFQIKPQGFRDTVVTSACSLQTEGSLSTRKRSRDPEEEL
T1 sequence (O75771 whole entry): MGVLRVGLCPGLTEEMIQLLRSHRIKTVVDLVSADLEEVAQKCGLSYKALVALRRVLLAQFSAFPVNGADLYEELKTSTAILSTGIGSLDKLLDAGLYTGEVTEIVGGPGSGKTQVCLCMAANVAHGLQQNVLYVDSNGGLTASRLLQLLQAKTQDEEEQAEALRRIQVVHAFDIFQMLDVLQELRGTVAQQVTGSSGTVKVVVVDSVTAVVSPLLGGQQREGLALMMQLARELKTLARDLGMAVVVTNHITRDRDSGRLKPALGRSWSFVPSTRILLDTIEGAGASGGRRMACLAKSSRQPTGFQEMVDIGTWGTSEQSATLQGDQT
T1 sequence (O43543 whole entry): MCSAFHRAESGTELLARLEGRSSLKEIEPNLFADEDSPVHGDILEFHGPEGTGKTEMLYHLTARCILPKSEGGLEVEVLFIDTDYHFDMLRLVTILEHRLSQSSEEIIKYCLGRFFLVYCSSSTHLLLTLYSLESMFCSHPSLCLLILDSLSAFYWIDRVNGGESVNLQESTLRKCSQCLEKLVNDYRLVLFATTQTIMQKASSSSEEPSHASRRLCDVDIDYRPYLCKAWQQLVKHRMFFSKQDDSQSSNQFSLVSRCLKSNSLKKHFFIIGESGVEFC
T2 sequence (O15315 1-345 K114A, form open): as the sequence (O15315 1-345) above, with K114A counted along it
T2 sequence (O43502 whole entry, form open): as the sequence (O43502 whole entry) above
T2 sequence (O75771 whole entry, form open): as the sequence (O75771 whole entry) above
T2 sequence (O43543 whole entry, form open): as the sequence (O43543 whole entry) above
T4 sequence (O15315 1-345 E144A, form open): as the sequence (O15315 1-345) above, with E144A counted along it
T4 sequence (O43502 whole entry, form open): as the sequence (O43502 whole entry) above
T4 sequence (O75771 whole entry, form open): as the sequence (O75771 whole entry) above
T4 sequence (O43543 whole entry, form open): as the sequence (O43543 whole entry) above
T3 sequence (O15315 1-345 E144A, form open): as the sequence (O15315 1-345) above, with E144A counted along it
T3 sequence (O43502 whole entry E161A, form open): as the sequence (O43502 whole entry) above, with E161A counted along it
T3 sequence (O75771 whole entry, form open): as the sequence (O75771 whole entry) above
T3 sequence (O43543 whole entry, form open): as the sequence (O43543 whole entry) above
T5 sequence (O15315 1-345, form open): as the sequence (O15315 1-345) above
T5 sequence (O43502 whole entry E161A, form open): as the sequence (O43502 whole entry) above, with E161A counted along it
T5 sequence (O75771 whole entry, form open): as the sequence (O75771 whole entry) above
T5 sequence (O43543 whole entry, form open): as the sequence (O43543 whole entry) above

| SMILES | cryo-EM structure (2.2 Å and 3.4 Å) ([1]; site: RAD51C nucleotide site) | nt of ADP bound per complex [2] | nt of ADP bound per complex [3] | HPLC of nucleotides extracted from purified complex [4] | cryo-EM structure (2.2 Å and 3.4 Å) ([1]; sites: RAD51D and XRCC2 nucleotide sites, co-purified nucleotide) | nt of ATP bound per complex [5] | % reduction of ATPase activity relative to wild-type [6] | HPLC of nucleotides extracted from purified complex [7] | nt of ATP bound per complex [8] |
| --- | --- | --- | --- | --- | --- | --- | --- | --- | --- |
| Nc1ncnc2c1ncn2[C@@H]1O[C@H](COP(=O)(O)OP(=O)(O)O)[C@@H](O)[C@H]1O [ADP] | RAD51D and XRCC2 bound ATP whereas RAD51C bound ADP | 1.2 ± 0.1 nt per complex | 1.9 ± 0.1 nt per complex | – | – | – | – | – | – |
| Nc1ncnc2c1ncn2[C@@H]1O[C@H](COP(=O)(O)OP(=O)(O)OP(=O)(O)O)[C@@H](O)[C@H]1O [ATP] | – | – | – | all nucleotide binding sites were fully occupied with ATP | RAD51D and XRCC2 bound ATP whereas RAD51C bound ADP | 1.8 ± 0.1 nt per complex | ~ 50% | all nucleotide binding sites were fully occupied with ATP | 2.1 ± 0.2 nt per complex |
